Laboratory results reported in the NIST ThermoML archive (doi:10.1021/je900524t).
Numbers after ± are expanded uncertainties.

Details: Crystal; visual observation

Normal melting temperature: 220.20 ± 1.4 °C
Compound: F[P-](F)(F)(F)(F)F.F[P-](F)(F)(F)(F)F.c1cc[n+](CC[n+]2ccccc2)cc1 [1,1'-(ethane-1,2-diyl)bis(pyridin-1-ium) hexafluorophosphate]
